Test system: 317291-083-R-J1-PDC complex spheroid growth
Experiment: Anticancer human tumor 317291-083-R-J1-PDC patient-derived soft tissue sarcoma cell line growth inhibition [Asc]
Conditions: for IC50: curve of first compound; for viability, T/C: stronger effect = lower value
Outline: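 Complex solid-tumor spheroids incorporating human endothelial and mesenchymal stem cells received single agents or combinations over half-log dilution ranges anchored to clinical Cmax.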
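Further: compound exposure lasted seven days after spheroids formed for three days.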
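Wherever viability, T/C is given: 100% = DMSO vehicle control wells.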

Structure (SMILES): NC(=O)C(=Cn1cnc(-c2cc(C(F)(F)F)cc(C(F)(F)F)c2)n1)c1cncnc1 + CCN1C(C(=O)NC23CCC(C(=O)O)(CC2)CC3)C(c2cccc(Cl)c2F)C2(C(=O)Nc3cc(Cl)ccc32)C12CCCCC2
- IC50 (second compound 0.00949 µM): 34.2 nM
- IC50 (second compound 0.03 µM): 21.5 nM
- IC50 (second compound 0.0949 µM): 23.8 nM
- IC50 (second compound 0.3 µM): 24.3 nM
- IC50 (second compound 0.949 µM): 23.6 nM
- IC50 (second compound 3 µM): 18.2 nM
- viability, T/C (second compound 0.00949 µM, first compound 0.000949 µM): 97.9%
- viability, T/C (second compound 0.00949 µM, first compound 0.003 µM): 83.4%
- viability, T/C (second compound 0.00949 µM, first compound 0.00949 µM): 79.2%
- viability, T/C (second compound 0.00949 µM, first compound 0.03 µM): 57.7%
- viability, T/C (second compound 0.00949 µM, first compound 0.0949 µM): 10%
- viability, T/C (second compound 0.00949 µM, first compound 0.3 µM): 2.56%
- viability, T/C (second compound 0.03 µM, first compound 0.000949 µM): 118%
- viability, T/C (second compound 0.03 µM, first compound 0.003 µM): 87.6%
- viability, T/C (second compound 0.03 µM, first compound 0.00949 µM): 84.8%
- viability, T/C (second compound 0.03 µM, first compound 0.03 µM): 38.2%
- viability, T/C (second compound 0.03 µM, first compound 0.0949 µM): 5.81%
- viability, T/C (second compound 0.03 µM, first compound 0.3 µM): 2.23%
- viability, T/C (second compound 0.0949 µM, first compound 0.000949 µM): 94.6%
- viability, T/C (second compound 0.0949 µM, first compound 0.003 µM): 109%
- viability, T/C (second compound 0.0949 µM, first compound 0.00949 µM): 72.4%
- viability, T/C (second compound 0.0949 µM, first compound 0.03 µM): 46.4%
- viability, T/C (second compound 0.0949 µM, first compound 0.0949 µM): 10.3%
- viability, T/C (second compound 0.0949 µM, first compound 0.3 µM): 2.94%
- viability, T/C (second compound 0.3 µM, first compound 0.000949 µM): 95.1%
- viability, T/C (second compound 0.3 µM, first compound 0.003 µM): 106%
- viability, T/C (second compound 0.3 µM, first compound 0.00949 µM): 74.6%
- viability, T/C (second compound 0.3 µM, first compound 0.03 µM): 47.4%
- viability, T/C (second compound 0.3 µM, first compound 0.0949 µM): 7.13%
- viability, T/C (second compound 0.3 µM, first compound 0.3 µM): 2.81%
- viability, T/C (second compound 0.949 µM, first compound 0.000949 µM): 110%
- viability, T/C (second compound 0.949 µM, first compound 0.003 µM): 90.3%
- viability, T/C (second compound 0.949 µM, first compound 0.00949 µM): 69.6%
- viability, T/C (second compound 0.949 µM, first compound 0.03 µM): 55.6%
- viability, T/C (second compound 0.949 µM, first compound 0.0949 µM): 4.34%
- viability, T/C (second compound 0.949 µM, first compound 0.3 µM): 2.96%
- viability, T/C (second compound 3 µM, first compound 0.000949 µM): 100%
- viability, T/C (second compound 3 µM, first compound 0.003 µM): 87.2%
- viability, T/C (second compound 3 µM, first compound 0.00949 µM): 76.8%
- viability, T/C (second compound 3 µM, first compound 0.03 µM): 27.7%
- viability, T/C (second compound 3 µM, first compound 0.0949 µM): 21.7%
- viability, T/C (second compound 3 µM, first compound 0.3 µM): 2.15%

Structure (SMILES): NC1CCC(NC2CC2c2ccccc2)CC1 (centres undefined) + CCN1C(C(=O)NC23CCC(C(=O)O)(CC2)CC3)C(c2cccc(Cl)c2F)C2(C(=O)Nc3cc(Cl)ccc32)C12CCCCC2
- IC50 (second compound 0.00949 µM): > 100 nM
- IC50 (second compound 0.03 µM): > 100 nM
- IC50 (second compound 0.0949 µM): > 100 nM
- IC50 (second compound 0.3 µM): > 100 nM
- IC50 (second compound 0.949 µM): > 100 nM
- IC50 (second compound 3 µM): > 100 nM
- viability, T/C (second compound 0.00949 µM, first compound 0.000316 µM): 92.4%
- viability, T/C (second compound 0.00949 µM, first compound 0.001 µM): 103%
- viability, T/C (second compound 0.00949 µM, first compound 0.00316 µM): 96.6%
- viability, T/C (second compound 0.00949 µM, first compound 0.01 µM): 97%
- viability, T/C (second compound 0.00949 µM, first compound 0.0316 µM): 95.5%
- viability, T/C (second compound 0.00949 µM, first compound 0.1 µM): 94.2%
- viability, T/C (second compound 0.03 µM, first compound 0.000316 µM): 109%
- viability, T/C (second compound 0.03 µM, first compound 0.001 µM): 100%
- viability, T/C (second compound 0.03 µM, first compound 0.00316 µM): 106%
- viability, T/C (second compound 0.03 µM, first compound 0.01 µM): 114%
- viability, T/C (second compound 0.03 µM, first compound 0.0316 µM): 107%
- viability, T/C (second compound 0.03 µM, first compound 0.1 µM): 94.2%
- viability, T/C (second compound 0.0949 µM, first compound 0.000316 µM): 103%
- viability, T/C (second compound 0.0949 µM, first compound 0.001 µM): 81.3%
- viability, T/C (second compound 0.0949 µM, first compound 0.00316 µM): 87.6%
- viability, T/C (second compound 0.0949 µM, first compound 0.01 µM): 95.7%
- viability, T/C (second compound 0.0949 µM, first compound 0.0316 µM): 106%
- viability, T/C (second compound 0.0949 µM, first compound 0.1 µM): 108%
- viability, T/C (second compound 0.3 µM, first compound 0.000316 µM): 116%
- viability, T/C (second compound 0.3 µM, first compound 0.001 µM): 108%
- viability, T/C (second compound 0.3 µM, first compound 0.00316 µM): 98.9%
- viability, T/C (second compound 0.3 µM, first compound 0.01 µM): 80.3%
- viability, T/C (second compound 0.3 µM, first compound 0.0316 µM): 102%
- viability, T/C (second compound 0.3 µM, first compound 0.1 µM): 111%
- viability, T/C (second compound 0.949 µM, first compound 0.000316 µM): 98.9%
- viability, T/C (second compound 0.949 µM, first compound 0.001 µM): 120%
- viability, T/C (second compound 0.949 µM, first compound 0.00316 µM): 76.2%
- viability, T/C (second compound 0.949 µM, first compound 0.01 µM): 93.8%
- viability, T/C (second compound 0.949 µM, first compound 0.0316 µM): 97.6%
- viability, T/C (second compound 0.949 µM, first compound 0.1 µM): 106%
- viability, T/C (second compound 3 µM, first compound 0.000316 µM): 99.7%
- viability, T/C (second compound 3 µM, first compound 0.001 µM): 107%
- viability, T/C (second compound 3 µM, first compound 0.00316 µM): 81.5%
- viability, T/C (second compound 3 µM, first compound 0.01 µM): 74.2%
- viability, T/C (second compound 3 µM, first compound 0.0316 µM): 83.6%
- viability, T/C (second compound 3 µM, first compound 0.1 µM): 74.3%
